By IC50 is commonly meant the concentration that inhibits the measured activity by half.

We go through one compound from patent US10213451B2, “Methods and compounds for modulating the secretion or expression of adhesion proteins or angiopoietins of cells” (PACIFIC ARROW LIMITED, priority 2004, dated 2019).

Molecules are shown by their SMILES. ≈ marks a conversion by molar mass, not a printed value.

The assay concerns Leishmania Major (promastigotes). In words: Cell growth of Leishmania parasites by MTT assay. Type of assay: cell-based. The settings on record: read-out: IC50, cytotoxic to Leishmania Major (promastigotes). The method, then: Method: Leishmania parasites (Leishmania major: MRHO/SU/59/P/LV39) were grown in culture medium in a T75 flask at room temperature. Promastigotes of Leishmania major (approximately 40 million per ml) were used in the experiment. 1.2 ml cell culture was transferred to a well of the 24-wells plate. Saponin Y10 (0.2 ml in medium) with different concentrations (final 6.25-200 ug/ml) was added to culture and cells were grown for 1-5 days at room temperature. At the end of drug-treatment, 150 ul of MTT (5 mg/ml in PBS) was added to each well and incubated for 4 hours. Formazan formed in cells was dissolved with DMSO and the OD at 490 nm was determined by an ELISA reader.
Background: Formazan colour is commonly taken as a measure of viable cells.

For `C/C=C(/C)C(=O)O[C@H]1[C@H](OC(=O)/C(C)=C\C)[C@@]2(CO)C(CC1(C)C)C1=CCC3[C@@]4(C)CC[C@H](O[C@@H]5OC(C(=O)O)[C@@H](O)[C@@H](O[C@@H]6O[C@@H](CO)[C@@H](O)C6O)C5O[C@@H]5OC(CO)[C@H](O)[C@@H](O)C5O)C(C)(C)C4CC[C@@]3(C)[C@]1(C)C[C@H]2O` (stereo partly drawn) [Xanifolia Y10, 3-O-[β-galactopyranosyl (1→2)]-α-arabinofuranosyl (1→3)-β-glucuronopyranosyl-21, 22-O-diangeloyl-3β, 16α, 21β, 22α, 28-pentahydroxyolean-12-ene], the IC50 is ~15 µg/mL (≈ 13.3 µM).
